ChEMBL document CHEMBL4145513, “An overview on crystal structures of InhA protein: Apo-form, in complex with its natural ligands and inhibitors” (Eur J Med Chem, 2018)

Columns and labels:
[1] = target: Enoyl-[acyl-carrier-protein] reductase [NADH] (Mycobacterium tuberculosis, UniProt P9WGR1, D2A); test: Inhibition of Mycobacterium tuberculosis InhA D2A mutant
[2] = test system: Mycobacterium tuberculosis; test: Antimycobacterial activity against Mycobacterium tuberculosis harboring InhA T2A mutant; type: functional
[3] = target: Enoyl-[acyl-carrier-protein] reductase [NADH] (Mycobacterium tuberculosis, UniProt P9WGR1, T2A); test: Inhibition of Mycobacterium tuberculosis InhA T2A mutant
[4] = target: T1, Enoyl-[acyl-carrier-protein] reductase [NADH] (Mycobacterium tuberculosis, UniProt P9WGR1, S94A); test: Inhibition of Mycobacterium tuberculosis InhA S94A mutant
[5] = target: T1, Enoyl-[acyl-carrier-protein] reductase [NADH]; test: Inhibition of Mycobacterium tuberculosis InhA S94A mutant using trans-2-decenoyl-CoA as substrate by spectrophotometric analysis
[6] = target: Enoyl-[acyl-carrier-protein] reductase [NADH] (Mycobacterium tuberculosis, UniProt P9WGR1, I21V); test: Inhibition of Mycobacterium tuberculosis InhA I21V mutant using trans-2-decenoyl-CoA as substrate by spectrophotometric analysis
[7] = target: T2, Enoyl-[acyl-carrier-protein] reductase [NADH] (Mycobacterium tuberculosis, UniProt P9WGR1, V203A)
[8] = target: T2, Enoyl-[acyl-carrier-protein] reductase [NADH]; remark: listed apart in the source
[9] = target: Enoyl-[acyl-carrier-protein] reductase [NADH] (Mycobacterium tuberculosis, UniProt P9WGR1, I215A); test: biochemical

NC(=O)c1c[n+]([C@@H]2O[C@H](COP(=O)(O)OP(=O)(O)OC[C@H]3O[C@@H](n4cnc5c(N)ncnc54)[C@H](O)[C@@H]3O)[C@@H](O)[C@H]2O)ccc1C(=O)c1ccncc1
IC50 [1]: 323 nM | Ki [1]: 172 nM | MIC50 [2]: 1.8 µM | IC50 [3]: 19 nM | Ki [3]: 5 nM | IC50 [4]: 323 nM | Ki [4]: 172 nM | Ki [5]: 5.3 nM | Ki [6]: 2.1 nM

CCCCCCc1ccc(Oc2ccccc2C)c(O)c1
Ki [7]: 427 nM | Ki [8]: 913 nM | Ki [9]: 114 nM
